From patent US20140120036A1, “RADIOLABELED 5-HT6 LIGANDS” (AbbVie Inc., priority 2012, published 2014)
Read-outs that look alike come from different tables or passages of the source.

Experiments:
[1] = Brain regional distribution of [3H]compound relative to cerebellum; assay type: in vivo
h-5-HT6 receptor = biological target: T1, h-5-HT6 receptor (Homo sapiens, UniProt P50406); assay: 5-HT6 receptor binding assay ([3H]-LSD displacement, HEK293 membranes); details: human 5-HT6
T1 construct: expressed in transfected cells
T1 sequence (P50406 whole entry): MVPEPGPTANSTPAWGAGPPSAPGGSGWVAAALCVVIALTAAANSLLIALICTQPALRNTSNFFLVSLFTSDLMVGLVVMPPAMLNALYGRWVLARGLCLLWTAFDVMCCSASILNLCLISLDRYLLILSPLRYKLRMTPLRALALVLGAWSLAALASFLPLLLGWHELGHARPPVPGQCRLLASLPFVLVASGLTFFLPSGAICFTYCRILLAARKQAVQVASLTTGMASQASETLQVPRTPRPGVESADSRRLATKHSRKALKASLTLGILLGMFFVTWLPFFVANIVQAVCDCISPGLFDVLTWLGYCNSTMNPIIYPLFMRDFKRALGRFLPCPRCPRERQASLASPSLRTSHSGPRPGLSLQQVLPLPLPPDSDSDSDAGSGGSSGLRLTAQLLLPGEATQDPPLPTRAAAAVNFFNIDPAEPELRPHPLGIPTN
Procedure: The cells were collected by centrifugation at 500 g for 10 min. at 4° C., washed with PBS and centrifuged (500 g, 10 min. 4° C.). The pellets were stored at −80° C. until use. For membrane preparation, the thawed cell pellet was resuspended in ice-cold sucrose buffer (0.25 M sucrose, 10 mM Hepes (pH 7.4), 1 mM Phenylmethylsulfonyl fluoride (PMSF) in DMSO, […] Pepstatin-A, 3 mM EDTA, 0.025% Bacitracin) and homogenized with a Branson Sonifier W-250 (Settings: Timer 4; Output Control 3; Duty Cycle constant; 2 to 3 cycles). Cell disruption was checked with the aid of a microscope. Remaining unbroken cells were pelleted at 1,000 g for 10 min. at 4° C. The sucrose buffer supernatant was then centrifuged at 60,000 g for 1 h at 4° C. […] Protein concentration was determined (BCA-Kit; Pierce) and aliquots stored at −80° C. or in liquid nitrogen for long-term storage.
After the plates had been dried for 2 h at 55° C. in a drying chamber scintillation cocktail (BetaPlate Scint; PerkinElmer) was added. Radioactivity was measured in a Microbeta Trilux two hours after the addition of the scintillation mixture. Data derived from liquid scintillation counting were analysed by iterative non-linear regression analysis with the use of the Statistical Analysis System (SAS): a program similar to “LIGAND” as described by Munson and Rodbard (Analytical Biochemistry 107, 220-239 (1980). […]

h-5-HT2A receptor = biological target: T2, h-5-HT2A receptor (Homo sapiens, UniProt P28223); assay: 5-HT2A receptor binding assay ([125I]-DOI displacement, CHO-K1 membranes)
T2 construct: purchased Perkin Elmer ES-3,3-M400UA; host or cells: CHO-K1 cell membranes
T2 sequence (P28223 whole entry): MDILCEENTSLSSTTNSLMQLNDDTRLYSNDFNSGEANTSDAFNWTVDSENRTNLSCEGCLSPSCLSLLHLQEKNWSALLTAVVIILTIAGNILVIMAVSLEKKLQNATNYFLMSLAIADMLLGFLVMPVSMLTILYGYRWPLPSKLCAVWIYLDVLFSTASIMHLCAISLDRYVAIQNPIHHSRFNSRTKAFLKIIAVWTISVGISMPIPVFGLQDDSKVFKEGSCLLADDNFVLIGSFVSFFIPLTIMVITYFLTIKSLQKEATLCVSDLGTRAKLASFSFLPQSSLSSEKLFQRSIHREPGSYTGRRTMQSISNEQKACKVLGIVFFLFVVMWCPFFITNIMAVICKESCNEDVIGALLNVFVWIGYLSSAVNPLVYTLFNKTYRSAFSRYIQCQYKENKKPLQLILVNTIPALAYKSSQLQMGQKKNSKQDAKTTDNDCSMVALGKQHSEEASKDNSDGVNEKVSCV
Procedure: The cells were collected by centrifugation at 500 g for 10 min. at 4° C., washed with PBS and centrifuged (500 g, 10 min. 4° C.). The pellets were stored at −80° C. until use. For membrane preparation, the thawed cell pellet was resuspended in ice-cold sucrose buffer (0.25 M sucrose, 10 mM Hepes (pH 7.4), 1 mM Phenylmethylsulfonyl fluoride (PMSF) in DMSO, […] Pepstatin-A, 3 mM EDTA, 0.025% Bacitracin) and homogenized with a Branson Sonifier W-250 (Settings: Timer 4; Output Control 3; Duty Cycle constant; 2 to 3 cycles). Cell disruption was checked with the aid of a microscope. Remaining unbroken cells were pelleted at 1,000 g for 10 min. at 4° C. The sucrose buffer supernatant was then centrifuged at 60,000 g for 1 h at 4° C. (Beckman Ultrazentrifuge XL 80). The pellet was resuspended in 30 ml ice-cold Tris buffer (20 mM TRIS (pH 7.4), […] Pepstatin A, 0.1 mM PMSF, 3 mM EDTA) by pipetting through a 10 ml serological pipet and centrifuged for 1 h at 4° C. at 60,000 g. A final resuspension was performed in a small volume of ice-cold Tris buffer (see above) by pressing through a serological pipet followed by ultrasonic treatment with a Branson Sonifier W-250 (Settings: Timer 1; Output Control 3; Duty Cycle constant; 1 cycle). Protein concentration was determined (BCA-Kit; Pierce) and aliquots stored at −80° C. or in liquid nitrogen for long-term storage.
After the plates had been dried for 2 h at 55° C. in a drying chamber scintillation cocktail (BetaPlate Scint; PerkinElmer) was added. Radioactivity was measured in a Microbeta Trilux two hours after the addition of the scintillation mixture. Data derived from liquid scintillation counting were analysed by iterative non-linear regression analysis with the use of the Statistical Analysis System (SAS): a program similar to “LIGAND” as described by Munson and Rodbard (Analytical Biochemistry 107, 220-239 (1980).
Data derived from liquid scintillation counting were analyzed by iterative non-linear regression analysis with the use of the Statistical Analysis System (SAS): a program similar to “LIGAND” as described by Munson and Rodbard (Anal. Biochem. 1980, 107, 220-239). Fitting was performed according to formulae described by Feldman (Anal. Biochem. 1972, 48, 317-338).

h-5-HT2B receptor = biological target: T3, h-5-HT2B receptor (Homo sapiens, UniProt P41595); assay: 5-HT2B receptor binding assay ([125I]-DOI displacement, CHO-K1 membranes); details: text
T3 construct: purchased Perkin Elmer ES-3,4-M400UA; host or cells: CHO-K1 cell membranes
T3 sequence (P41595 whole entry): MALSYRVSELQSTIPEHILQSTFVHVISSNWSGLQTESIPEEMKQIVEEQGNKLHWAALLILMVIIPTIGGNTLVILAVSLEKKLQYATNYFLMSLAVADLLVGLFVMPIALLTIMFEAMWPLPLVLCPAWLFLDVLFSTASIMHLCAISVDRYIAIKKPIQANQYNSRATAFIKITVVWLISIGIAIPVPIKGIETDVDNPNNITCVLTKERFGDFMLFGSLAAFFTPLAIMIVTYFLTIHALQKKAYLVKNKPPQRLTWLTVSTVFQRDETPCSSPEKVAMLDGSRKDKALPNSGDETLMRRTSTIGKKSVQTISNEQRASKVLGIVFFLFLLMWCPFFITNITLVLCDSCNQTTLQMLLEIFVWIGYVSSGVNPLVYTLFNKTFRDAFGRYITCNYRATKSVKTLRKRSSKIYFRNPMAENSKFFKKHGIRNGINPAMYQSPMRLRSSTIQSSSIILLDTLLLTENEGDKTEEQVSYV
Procedure: Cells from stable clonal cell lines expressing the corresponding receptor (5-HT6, 5-HT2A or 5-HT2B receptors) were washed with PBS with 0.02% EDTA. The cells were collected by centrifugation at 500 g for 10 min. at 4° C., washed with PBS and centrifuged (500 g, 10 min. 4° C.). The pellets were stored at −80° C. until use. For membrane preparation, the thawed cell pellet was resuspended in ice-cold sucrose buffer (0.25 M sucrose, 10 mM Hepes (pH 7.4), 1 mM Phenylmethylsulfonyl fluoride (PMSF) in DMSO, […] Pepstatin-A, 3 mM EDTA, 0.025% Bacitracin) and homogenized with a Branson Sonifier W-250 (Settings: Timer 4; Output Control 3; Duty Cycle constant; 2 to 3 cycles). Cell disruption was checked with the aid of a microscope. Remaining unbroken cells were pelleted at 1,000 g for 10 min. at 4° C. The sucrose buffer supernatant was then centrifuged at 60,000 g for 1 h at 4° C. (Beckman Ultrazentrifuge XL 80). […] Protein concentration was determined (BCA-Kit; Pierce) and aliquots stored at −80° C. or in liquid nitrogen for long-term storage.
All receptor binding experiments were carried out in the corresponding assay buffer in a total volume of 200 μl in the presence of various concentrations of test compound (10 ^−5 M to 10^−9 M, tenfold serial dilution, duplicate determinations). […] Radioactivity was measured in a Microbeta Trilux two hours after the addition of the scintillation mixture. […]

Rat 5-HT6 = Rat 5-HT6 (Rattus norvegicus, UniProt P31388); assay: Rat 5-HT6 binding
Rat 5-HT6, sequence (P31388 whole entry): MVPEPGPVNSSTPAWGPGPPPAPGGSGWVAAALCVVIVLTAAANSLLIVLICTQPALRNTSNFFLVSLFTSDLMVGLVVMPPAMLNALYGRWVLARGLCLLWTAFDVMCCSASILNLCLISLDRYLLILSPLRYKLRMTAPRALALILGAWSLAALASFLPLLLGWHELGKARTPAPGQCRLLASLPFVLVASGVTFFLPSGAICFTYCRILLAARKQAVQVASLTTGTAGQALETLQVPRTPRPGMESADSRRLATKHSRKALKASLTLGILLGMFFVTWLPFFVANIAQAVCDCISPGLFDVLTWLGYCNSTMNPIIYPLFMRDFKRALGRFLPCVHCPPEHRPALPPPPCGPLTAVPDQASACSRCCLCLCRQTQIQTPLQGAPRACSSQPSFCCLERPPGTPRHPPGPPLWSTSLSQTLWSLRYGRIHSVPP

Rat microsome half-life = assay type: in vitro ADME; details: rat microsomes, read-out: Rat microsome T½ (mm)
[2] = Rat PK (0.05 mg/kg, iv), plasma and brain concentrations; assay type: in vivo; details: for Free B/P Ratio: free brain concentration divided by free plasma concentration
[3] = biological target: 78 targets (CEREP) other than the 5-HT6 receptor; assay: Selectivity panel, 78 targets (CEREP); assay type: binding; details: all but the 5-HT2B and 5-HT2A receptors, read-out: Ki at ancillary targets
Mk striatum 5-HT6 = Mk striatum 5-HT6 (Macaca mulatta, UniProt A0A5F7ZDI3); assay: Mk striatum 5-HT6 binding; design: species or system Mk (monkey)
Mk striatum 5-HT6, sequence (A0A5F7ZDI3 1-440): as the sequence (P50406 whole entry) above, with A41V, A49V, L141P, V304A, R342W, R393Q, Q406R, E429K, P432L, I437T counted along it

1-(5-(3-(difluoromethoxy)phenylsulfonyl)-2-methoxyphenyl)-4-([^3H]methyl)-piperazine [Example 3]
Hippo./Cer. ([1]; 3 min after dose): 3.7
Striatum/Cer. ([1]; 3 min after dose): 10.4
Hippo./Cer. ([1]; 40 min after dose): 1.4
Striatum/Cer. ([1]; 40 min after dose): 2.0

COc1ccc(S(=O)(=O)c2cccc(OC(F)F)c2)cc1N1CCN(C)CC1 [Example 1, 4-(5-(3-(difluoromethoxy)phenylsulfonyl)-2-methoxyphenyl)-1-methylpiperazin-1-ium chloride]
Ki (h-5-HT6 receptor): 0.41 nM
Selectivity for 5-HT6 v. 5-HT2A (h-5-HT2A receptor; ratio of human 5-HT2A Ki to human 5-HT6 Ki): 475.6 ×
Selectivity for 5-HT6 over 5-HT2A (h-5-HT2A receptor; text): 475.6 fold
Selectivity for 5-HT6 over 5-HT2A (h-5-HT2A receptor; text, listed as Example (1)): 475 fold
Ki (h-5-HT2A receptor; text, read-out: Ki at 5-HT2A receptor): 195 nM
Ki (h-5-HT2B receptor): 71 nM
Selectivity for 5-HT6 over 5-HT2B (h-5-HT2B receptor): 173.2 fold
Ki (Rat 5-HT6): 1.5 nM
half-life (Rat microsome half-life): 10 min
Free [brain] ([2]; 3 min after dose): 53.4 ng/g
Plasma Conc. ([2]; 3 min after dose): 49.2 ng/mL
Free B/P Ratio ([2]; 3 min after dose): 1.1
Free [brain] ([2]; 5 min after dose): 55.3 ng/g
Plasma Conc. ([2]; 5 min after dose): 29.0 ng/mL
Free B/P Ratio ([2]; 5 min after dose): 1.7
Ki [3]: > 1000 nM

CN1CCN(c2cccc3cc(S(=O)(=O)c4cccc(F)c4)cnc23)CC1 [GSK-215083, reference compound]
Ki (h-5-HT2A receptor; human 5-HT2A, read-out: Human 5-HT2A Ki): 0.395 nM
Ki (Mk striatum 5-HT6): 3.2 nM
